Measured values taken from article PMC10247784, “Physiological activation of human and mouse bitter taste receptors by bile acids” (Communications Biology, 2023).

Assays:
[1] = tested on: T2R02 of Latimeria chalumnae; design: method as in PMID 33355666; conditions: cited from earlier work
[2] = target: T1, mouse Tas2r105 (Mus musculus, UniProt Q9JKT4); assay: Calcium imaging assay (FLIPR), HEK293T-Gα16gust44 cells transfected with mouse Tas2r105; assay type: cell-based
T1 construct: expressed in transfected cells; host or cells: HEK293T-Gα16gust44
T1 sequence (Q9JKT4 1-300): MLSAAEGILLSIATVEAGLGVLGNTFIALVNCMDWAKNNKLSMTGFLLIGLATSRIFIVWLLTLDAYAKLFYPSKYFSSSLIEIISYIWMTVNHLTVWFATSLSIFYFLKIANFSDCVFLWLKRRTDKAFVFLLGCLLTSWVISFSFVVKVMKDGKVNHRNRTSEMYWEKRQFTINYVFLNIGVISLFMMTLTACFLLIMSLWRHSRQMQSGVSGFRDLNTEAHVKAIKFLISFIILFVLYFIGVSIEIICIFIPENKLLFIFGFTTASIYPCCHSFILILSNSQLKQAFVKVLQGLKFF
Method: This set of bile acids was chosen because of their commercial availability in high purities, their diversity within the class of bile acids and their previous detection and quantitation in human blood. Stock solutions were prepared in DMSO.
As basal growth medium for the HEK293T-Gα16gust44 cell line[17],[59] served Dulbecco’s modified eagle medium (DMEM) (Thermo Fisher Scientific, Darmstadt, Germany) supplemented with 10 % fetal bovine serum (Sigma-Aldrich, Steinheim, Germany), 2 mM L-glutamine (Sigma-Aldrich, Steinheim, Germany), 100 units/ml penicillin (Sigma Aldrich, Steinheim, Germany) and 100 µg/ml streptomycin (Sigma Aldrich, Steinheim, Germany). Growth conditions were 37 °C, 5 % CO2 and saturated air-humidity[60].
HEK293T-Gα16gust44 cells were seeded on poly-D-lysine (10 µg/ml) coated 96-well plates to reach a confluence of 40-60 % the next day. For transient transfection 150 ng of plasmid DNA containing the receptor of interest and 0.3 µl lipofectamine 2000 (Thermo Fisher Scientific, Darmstadt, Germany) per well were used and transfection took place according to the manual of lipofectamine 2000. […] The empty vector DNA (mock) was transfected as negative control[14],[41].
Cells were loaded using the calcium-sensitive fluorescent dye Fluo-4-AM (Abcam, Cambridge, Great Britain) in the presence of 2.5 mM probenecid (Sigma-Aldrich, Steinheim, Germany) the day after transfection[13],[41]. 1 h after loading, cells were washed with C1 buffer using a BioTek Cell Washer, incubated in the dark for half an hour and washed again. For automated agonist application and measurement of fluorescence changes, a FLIPR^TETRA device (Molecular Devices, San José, United States) was used. Viability of cells was tested by application of 100 nM Somatostatin 14 (Bachem, Bubendorf, Switzerland)[42].
Measured data were negative control corrected by subtracting the signal of the mock-transfected cells and exported to Microsoft Excel using the FLIPR software ScreenWorks 4.2. In Microsoft Excel software, standardization of maximum fluorescence intensities to the basal fluorescence and normalization to the buffer-only control was done to calculate the relative fluorescence changes (ΔF/F).
Initial screening experiments performed in duplicate wells were confirmed by at least one replication and representative traces were selected for display. All dose-response relationships were determined by three independent experiments (biological replicates) performed in duplicates (technical replicates). Threshold concentrations, defined as lowest substance concentrations leading to statistically significant elevated fluorescence changes in receptor-transfected cells compared with empty vector-transfected cells, were determined using SigmaPlot with Student’s t-test to evaluate statistical significance (p < 0.01).

## C[C@H](CCC(=O)O)[C@H]1CC[C@H]2[C@@H]3[C@H](O)C[C@@H]4C[C@H](O)CC[C@]4(C)[C@H]3CC[C@]12C [Chenodeoxycholic Acid, chenodeoxycholic acid]
[1]
  Activation of T2R02: activate

## C[C@H](CCC(=O)NCCS(=O)(=O)O)[C@H]1CC[C@H]2[C@@H]3CC[C@@H]4C[C@H](O)CC[C@]4(C)[C@H]3CC[C@]12C [Taurolithocholic Acid, taurolithocholic acid]
[1]
  Activation of T2R02: activate

## C[C@H](CCC(=O)O)[C@H]1CC[C@H]2[C@@H]3CC[C@@H]4C[C@H](O)CC[C@]4(C)[C@H]3CC[C@]12C [Lithocholic Acid, lithocholic acid]
[2]; Time 0 s
  RLU: 0 RLU
[2]; Time 2 s
  RLU: -19.9183 RLU
[2]; Time 4 s
  RLU: 19.2865 RLU
[2]; Time 6 s
  RLU: -6.64 RLU
[2]; Time 8 s
  RLU: 9.805 RLU
[2]; Time 12 s
  RLU: 17.7969 RLU
[2]; Time 14 s
  RLU: 8.271 RLU
[2]; Time 16 s
  RLU: -2.182 RLU
[2]; Time 18 s
  RLU: 5.571 RLU
[2]; Time 18.781 s
  RLU: 8.9 RLU
[2]; Time 20.781 s
  RLU: -20.4639 RLU
[2]; Time 22.781 s
  RLU: -20.313 RLU
[2]; Time 24.781 s
  RLU: 13.8358 RLU
[2]; Time 26.781 s
  RLU: 13.4767 RLU
[2]; Time 28.781 s
  RLU: 5.266 RLU
[2]; Time 30.781 s
  RLU: -9.837 RLU
[2]; Time 32.781 s
  RLU: 8.574 RLU
[2]; Time 34.781 s
  RLU: 27.1912 RLU
[2]; Time 36.781 s
  RLU: 18.0239 RLU
[2]; Time 38.781 s
  RLU: 6.659 RLU
[2]; Time 40.781 s
  RLU: 53.7499 RLU
[2]; Time 42.781 s
  RLU: 49.1517 RLU
[2]; Time 44.781 s
  RLU: 47.3635 RLU
[2]; Time 46.781 s
  RLU: 50.4831 RLU
[2]; Time 48.781 s
  RLU: 74.4289 RLU
[2]; Time 50.781 s
  RLU: 93.6056 RLU
[2]; Time 52.781 s
  RLU: 63.4969 RLU
[2]; Time 54.781 s
  RLU: 82.9174 RLU
[2]; Time 56.781 s
  RLU: 91.8724 RLU
[2]; Time 58.781 s
  RLU: 82.9428 RLU
[2]; Time 60.781 s
  RLU: 110.605 RLU
[2]; Time 62.781 s
  RLU: 104.538 RLU
[2]; Time 64.781 s
  RLU: 112.529 RLU
[2]; Time 66.781 s
  RLU: 137.104 RLU
[2]; Time 68.781 s
  RLU: 132.36 RLU
[2]; Time 70.781 s
  RLU: 132.904 RLU
[2]; Time 72.781 s
  RLU: 132.041 RLU
[2]; Time 74.781 s
  RLU: 144.653 RLU
[2]; Time 76.781 s
  RLU: 172.509 RLU
[2]; Time 78.781 s
  RLU: 142.279 RLU
[2]; Time 80.781 s
  RLU: 151.243 RLU
[2]; Time 82.781 s
  RLU: 167.63 RLU
[2]; Time 84.781 s
  RLU: 195.966 RLU
[2]; Time 86.781 s
  RLU: 203.204 RLU
[2]; Time 88.781 s
  RLU: 204.712 RLU
[2]; Time 90.781 s
  RLU: 215.59 RLU
[2]; Time 92.781 s
  RLU: 209.022 RLU
[2]; Time 94.781 s
  RLU: 228.864 RLU
[2]; Time 96.781 s
  RLU: 184.288 RLU
[2]; Time 98.781 s
  RLU: 227.541 RLU
[2]; Time 100.781 s
  RLU: 248.863 RLU
[2]; Time 102.781 s
  RLU: 222.595 RLU
[2]; Time 104.781 s
  RLU: 217.502 RLU
[2]; Time 106.781 s
  RLU: 225.971 RLU
[2]; Time 108.781 s
  RLU: 244.356 RLU
[2]; Time 110.781 s
  RLU: 261.979 RLU
[2]; Time 112.781 s
  RLU: 241.216 RLU
[2]; Time 114.781 s
  RLU: 243.367 RLU
[2]; Time 116.781 s
  RLU: 246.887 RLU
[2]; Time 118.781 s
  RLU: 257.566 RLU
[2]; Time 120.781 s
  RLU: 260.092 RLU
[2]; Time 122.781 s
  RLU: 284.505 RLU
[2]; Time 124.781 s
  RLU: 270.165 RLU
[2]; Time 126.781 s
  RLU: 278.83 RLU
[2]; Time 128.781 s
  RLU: 309.382 RLU
[2]; Time 130.781 s
  RLU: 309.382 RLU
[2]; Time 132.781 s
  RLU: 310.252 RLU
[2]; Time 134.781 s
  RLU: 282.326 RLU
[2]; Time 136.781 s
  RLU: 279.582 RLU
[2]; Time 137.562 s
  RLU: 296.261 RLU
[2]; Time 143.562 s
  RLU: 310.291 RLU
[2]; Time 149.562 s
  RLU: 291.585 RLU
[2]; Time 155.562 s
  RLU: 301.792 RLU
[2]; Time 161.562 s
  RLU: 299.079 RLU
[2]; Time 167.562 s
  RLU: 303.398 RLU
[2]; Time 173.562 s
  RLU: 315.378 RLU
[2]; Time 179.562 s
  RLU: 314.187 RLU
[2]; Time 185.562 s
  RLU: 308.746 RLU
[2]; Time 191.562 s
  RLU: 287.017 RLU
[2]; Time 197.562 s
  RLU: 315.242 RLU
[2]; Time 203.562 s
  RLU: 299.639 RLU
[2]; Time 209.562 s
  RLU: 295.067 RLU
[2]; Time 215.562 s
  RLU: 316.647 RLU
[2]; Time 221.562 s
  RLU: 272.857 RLU
[2]; Time 227.562 s
  RLU: 314.132 RLU
[2]; Time 233.562 s
  RLU: 269.771 RLU
[2]; Time 239.562 s
  RLU: 270.901 RLU
[2]; Time 245.562 s
  RLU: 241.175 RLU
[2]; Time 293.562 s
  RLU: 236.399 RLU
[2]; Time 299.562 s
  RLU: 209.696 RLU
[2]; Time 305.562 s
  RLU: 212.529 RLU
[2]; Time 311.562 s
  RLU: 180.625 RLU
[2]; Time 317.562 s
  RLU: 178.726 RLU
[2]; Time 323.562 s
  RLU: 162.84 RLU
[2]; Time 329.562 s
  RLU: 185.237 RLU
[2]; Time 335.562 s
  RLU: 178.412 RLU
[2]; Time 341.562 s
  RLU: 163.583 RLU
[2]; Time 347.562 s
  RLU: 148.887 RLU
[2]; Time 353.562 s
  RLU: 153.613 RLU
[2]; Time 359.562 s
  RLU: 155.912 RLU
[2]; p < 0.01 vs empty vector
  Activation threshold concentration Tas2r105: 3 µM
